# Assay results as given in paper doi:10.1101/2024.08.19.608619, “Discovery of potent SARS-CoV-2 nsp3 macrodomain inhibitors uncovers lack of translation to cellular antiviral response” (bioRxiv, 2024).
# Like-named read-outs stand apart in the source and are kept apart here.
# Tests used:
# Experiment in all cases: biochemical
# Parameters in all cases: In vitro kinase panel profiling, per cent remaining kinase activity at 10 uM
# PI3 Kinase (p120γ)(h) = biological target: T1, PI3 Kinase (p120γ)(h) (Homo sapiens, UniProt P48736); details: atp_concentration=100, read-out: % of control remaining
# T1 construct: gene PIK3CG
# Description: (§1) We derisk potential for off-target activity by profiling the compound in a CEREP panel, a standard secondary pharmacology assessment, as well as a kinase panel to derisk a potential hinge-binding motif in our leads, and a PARP panel to derisk activity against human […]. Reassuringly, the compounds are selective, with the only off-targets being moderate human CHRM2 and KOR receptors activity associated with ASAP-0011198.
# MST1(h) = biological target: T2, MST1(h) (Homo sapiens, UniProt Q13043); details: atp_concentration=90, read-out: % of control remaining
# T2 construct: gene STK4
# T2 sequence (Q13043 1-487): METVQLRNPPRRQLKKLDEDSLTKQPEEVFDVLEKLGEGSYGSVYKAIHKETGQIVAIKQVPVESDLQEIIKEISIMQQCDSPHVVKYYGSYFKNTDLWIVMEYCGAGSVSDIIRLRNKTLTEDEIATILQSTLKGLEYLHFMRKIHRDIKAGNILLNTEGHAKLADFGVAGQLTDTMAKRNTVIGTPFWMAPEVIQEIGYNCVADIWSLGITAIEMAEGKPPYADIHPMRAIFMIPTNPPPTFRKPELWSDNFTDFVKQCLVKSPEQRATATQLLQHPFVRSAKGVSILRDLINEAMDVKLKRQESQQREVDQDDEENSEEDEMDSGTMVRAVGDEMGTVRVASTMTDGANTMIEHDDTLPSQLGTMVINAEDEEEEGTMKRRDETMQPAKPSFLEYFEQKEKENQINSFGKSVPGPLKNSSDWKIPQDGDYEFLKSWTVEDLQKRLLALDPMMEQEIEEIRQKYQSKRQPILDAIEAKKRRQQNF
# Description: as §1
# GSK3β(h) = biological target: T3, GSK3β(h) (Homo sapiens, UniProt P49841); details: atp_concentration=15, read-out: % of control remaining
# T3 construct: gene GSK3B
# Description: as §1
# Fyn(h) = Fyn(h) (Homo sapiens, UniProt P06241); details: atp_concentration=70, read-out: % of control remaining
# Description: as §1
# MLK1(h) = biological target: T4, MLK1(h) (Homo sapiens, UniProt P80192); details: atp_concentration=45, read-out: % of control remaining
# T4 construct: gene MAP3K9
# Description: as §1
# PKBα(h) = biological target: T5, PKBα(h) (Homo sapiens, UniProt P31749); details: atp_concentration=155, read-out: % of control remaining
# T5 construct: gene AKT1
# Description: as §1
# CDK1/cyclinB(h) = CDK1/cyclinB(h) (Homo sapiens, UniProt P06493); details: atp_concentration=45, read-out: % of control remaining
# Description: as §1
# IGF-1R(h) = biological target: T6, IGF-1R(h) (Homo sapiens, UniProt P08069); details: atp_concentration=200, read-out: % of control remaining
# T6 construct: gene IGF1R
# Description: as §1
# [1] = biological target: T7, PI3 Kinase (p110δ/p85α)(h) (Homo sapiens, UniProt O00329); details: atp_concentration=200, read-out: % of control remaining
# T7 construct: gene PIK3CD
# Description: as §1
# CaMKI(h) = biological target: T8, CaMKI(h) (Homo sapiens, UniProt Q14012); details: atp_concentration=200, read-out: % of control remaining
# T8 construct: gene CAMK1
# Description: as §1
# CDK2/cyclinA(h) = CDK2/cyclinA(h) (Homo sapiens, UniProt P24941); details: atp_concentration=45, read-out: % of control remaining
# Description: as §1
# SAPK2a(h) = biological target: T9, SAPK2a(h) (Homo sapiens, UniProt Q16539); details: atp_concentration=90, read-out: % of control remaining
# T9 construct: gene MAPK14
# Description: as §1
# p70S6K(h) = biological target: T10, p70S6K(h) (Homo sapiens, UniProt P23443); details: atp_concentration=15, read-out: % of control remaining
# T10 construct: gene RPS6KB1
# Description: as §1
# KDR(h) = KDR(h) (Homo sapiens, UniProt P35968); details: atp_concentration=90, read-out: % of control remaining
# Description: as §1
# [2] = biological target: T11, PI3 Kinase (p110α/p85α)(h) (Homo sapiens, UniProt P42336); details: atp_concentration=200, read-out: % of control remaining
# T11 construct: gene PIK3CA
# Description: as §1
# mTOR(h) = mTOR(h) (Homo sapiens, UniProt P42345); details: atp_concentration=70, read-out: % of control remaining
# Description: as §1
# EGFR(h) = EGFR(h) (Homo sapiens, UniProt P00533); details: atp_concentration=10, read-out: % of control remaining
# Description: as §1
# [3] = biological target: T12, PI3 Kinase (p110β/p85α)(h) (Homo sapiens, UniProt P42338); details: atp_concentration=200, read-out: % of control remaining
# T12 construct: gene PIK3CB
# Description: as §1
# Chain of Fyn(h) (P06241 whole entry): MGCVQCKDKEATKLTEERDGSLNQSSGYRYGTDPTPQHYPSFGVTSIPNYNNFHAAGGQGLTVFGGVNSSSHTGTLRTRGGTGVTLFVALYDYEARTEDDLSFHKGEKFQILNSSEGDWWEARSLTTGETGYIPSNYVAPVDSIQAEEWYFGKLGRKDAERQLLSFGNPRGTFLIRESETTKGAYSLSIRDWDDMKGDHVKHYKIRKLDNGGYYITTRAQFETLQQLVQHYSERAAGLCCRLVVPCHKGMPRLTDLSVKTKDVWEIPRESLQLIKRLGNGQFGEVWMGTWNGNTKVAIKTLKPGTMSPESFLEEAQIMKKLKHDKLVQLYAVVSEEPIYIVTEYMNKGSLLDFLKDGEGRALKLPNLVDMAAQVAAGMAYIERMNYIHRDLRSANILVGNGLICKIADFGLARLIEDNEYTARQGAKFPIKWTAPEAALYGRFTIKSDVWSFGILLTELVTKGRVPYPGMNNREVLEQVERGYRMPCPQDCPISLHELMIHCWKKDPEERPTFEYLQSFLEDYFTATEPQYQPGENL
# T10 sequence (P23443 whole entry): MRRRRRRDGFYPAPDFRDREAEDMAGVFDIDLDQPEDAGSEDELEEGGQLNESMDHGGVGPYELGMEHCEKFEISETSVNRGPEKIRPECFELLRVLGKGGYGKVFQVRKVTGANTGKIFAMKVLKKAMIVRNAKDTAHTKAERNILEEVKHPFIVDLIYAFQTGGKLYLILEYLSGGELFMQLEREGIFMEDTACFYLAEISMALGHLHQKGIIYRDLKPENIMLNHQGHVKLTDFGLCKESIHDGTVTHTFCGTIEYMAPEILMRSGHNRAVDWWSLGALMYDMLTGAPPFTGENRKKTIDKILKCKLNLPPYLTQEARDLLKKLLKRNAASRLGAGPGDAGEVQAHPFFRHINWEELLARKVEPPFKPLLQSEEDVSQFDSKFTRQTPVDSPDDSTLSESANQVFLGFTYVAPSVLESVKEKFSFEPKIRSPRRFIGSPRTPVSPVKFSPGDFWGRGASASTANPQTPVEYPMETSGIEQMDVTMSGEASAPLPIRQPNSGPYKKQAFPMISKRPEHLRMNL
# T8 sequence (Q14012 whole entry): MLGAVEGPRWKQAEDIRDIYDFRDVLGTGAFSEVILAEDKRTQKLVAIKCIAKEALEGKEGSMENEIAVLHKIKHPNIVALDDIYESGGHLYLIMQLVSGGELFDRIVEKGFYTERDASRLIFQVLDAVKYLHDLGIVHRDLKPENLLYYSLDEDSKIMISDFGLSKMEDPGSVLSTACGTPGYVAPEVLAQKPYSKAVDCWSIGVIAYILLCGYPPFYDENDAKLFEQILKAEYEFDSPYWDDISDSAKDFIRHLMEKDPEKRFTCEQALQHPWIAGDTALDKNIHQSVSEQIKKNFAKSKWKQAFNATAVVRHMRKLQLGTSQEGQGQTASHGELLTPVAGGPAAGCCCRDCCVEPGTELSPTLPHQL
# T7 sequence (O00329 whole entry): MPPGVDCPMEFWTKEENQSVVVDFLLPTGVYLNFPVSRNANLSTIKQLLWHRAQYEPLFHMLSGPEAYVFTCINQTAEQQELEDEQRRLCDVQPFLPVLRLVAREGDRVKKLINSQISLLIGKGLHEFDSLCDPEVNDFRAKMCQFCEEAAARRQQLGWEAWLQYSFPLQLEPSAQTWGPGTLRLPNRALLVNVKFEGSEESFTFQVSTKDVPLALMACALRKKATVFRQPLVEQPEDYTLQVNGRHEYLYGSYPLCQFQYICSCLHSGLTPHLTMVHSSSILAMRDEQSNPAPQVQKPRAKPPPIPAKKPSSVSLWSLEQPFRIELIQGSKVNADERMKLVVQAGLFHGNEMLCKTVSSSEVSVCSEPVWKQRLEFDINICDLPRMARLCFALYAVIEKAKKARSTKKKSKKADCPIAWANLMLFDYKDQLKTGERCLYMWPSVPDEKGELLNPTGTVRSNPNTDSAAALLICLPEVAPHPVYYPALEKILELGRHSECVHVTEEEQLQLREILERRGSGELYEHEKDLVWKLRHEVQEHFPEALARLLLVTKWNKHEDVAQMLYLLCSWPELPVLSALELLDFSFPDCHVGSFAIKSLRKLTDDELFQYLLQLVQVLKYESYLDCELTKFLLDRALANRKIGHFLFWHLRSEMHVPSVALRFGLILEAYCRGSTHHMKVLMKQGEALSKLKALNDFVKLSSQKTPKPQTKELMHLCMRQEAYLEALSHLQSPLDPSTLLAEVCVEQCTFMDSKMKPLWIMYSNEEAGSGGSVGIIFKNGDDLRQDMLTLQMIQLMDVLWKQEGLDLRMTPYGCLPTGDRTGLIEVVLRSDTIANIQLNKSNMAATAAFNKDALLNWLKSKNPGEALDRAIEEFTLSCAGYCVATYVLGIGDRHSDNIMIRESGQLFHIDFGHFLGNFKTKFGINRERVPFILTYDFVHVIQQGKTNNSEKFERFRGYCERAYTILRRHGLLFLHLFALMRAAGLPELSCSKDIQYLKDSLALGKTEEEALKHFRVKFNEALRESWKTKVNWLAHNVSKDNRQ
# T7 sequence (P27986 whole entry partner): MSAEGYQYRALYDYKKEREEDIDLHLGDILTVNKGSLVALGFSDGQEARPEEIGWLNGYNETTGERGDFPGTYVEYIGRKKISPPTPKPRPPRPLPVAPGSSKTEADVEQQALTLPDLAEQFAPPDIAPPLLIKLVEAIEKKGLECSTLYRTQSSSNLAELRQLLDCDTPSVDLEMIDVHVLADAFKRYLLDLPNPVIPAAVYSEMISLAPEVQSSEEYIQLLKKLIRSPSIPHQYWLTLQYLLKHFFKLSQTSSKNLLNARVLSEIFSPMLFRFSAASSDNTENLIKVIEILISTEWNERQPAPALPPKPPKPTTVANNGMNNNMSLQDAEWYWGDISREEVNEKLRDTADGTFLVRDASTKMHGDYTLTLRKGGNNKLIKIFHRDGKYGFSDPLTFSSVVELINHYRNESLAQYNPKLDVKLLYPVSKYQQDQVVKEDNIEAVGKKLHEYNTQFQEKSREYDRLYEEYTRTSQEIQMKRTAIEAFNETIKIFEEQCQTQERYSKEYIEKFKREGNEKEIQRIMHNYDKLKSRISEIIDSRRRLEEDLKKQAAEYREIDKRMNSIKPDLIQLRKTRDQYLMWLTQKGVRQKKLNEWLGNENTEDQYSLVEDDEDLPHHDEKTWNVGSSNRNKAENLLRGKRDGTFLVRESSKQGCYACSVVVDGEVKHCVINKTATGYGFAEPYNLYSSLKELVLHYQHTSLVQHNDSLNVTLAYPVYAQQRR
# T3 sequence (P49841 whole entry): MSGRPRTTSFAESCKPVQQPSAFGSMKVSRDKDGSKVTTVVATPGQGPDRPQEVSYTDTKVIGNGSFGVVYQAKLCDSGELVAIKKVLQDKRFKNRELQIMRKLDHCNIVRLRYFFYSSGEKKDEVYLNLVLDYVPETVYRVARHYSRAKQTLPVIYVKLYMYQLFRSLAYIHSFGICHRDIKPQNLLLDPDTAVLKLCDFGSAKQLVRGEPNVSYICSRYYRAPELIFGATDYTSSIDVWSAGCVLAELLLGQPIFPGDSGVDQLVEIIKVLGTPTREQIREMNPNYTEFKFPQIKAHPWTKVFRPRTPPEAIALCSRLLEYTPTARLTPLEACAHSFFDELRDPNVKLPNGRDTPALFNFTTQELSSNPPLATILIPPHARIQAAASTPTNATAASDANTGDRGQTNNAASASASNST
# T5 sequence (P31749 whole entry): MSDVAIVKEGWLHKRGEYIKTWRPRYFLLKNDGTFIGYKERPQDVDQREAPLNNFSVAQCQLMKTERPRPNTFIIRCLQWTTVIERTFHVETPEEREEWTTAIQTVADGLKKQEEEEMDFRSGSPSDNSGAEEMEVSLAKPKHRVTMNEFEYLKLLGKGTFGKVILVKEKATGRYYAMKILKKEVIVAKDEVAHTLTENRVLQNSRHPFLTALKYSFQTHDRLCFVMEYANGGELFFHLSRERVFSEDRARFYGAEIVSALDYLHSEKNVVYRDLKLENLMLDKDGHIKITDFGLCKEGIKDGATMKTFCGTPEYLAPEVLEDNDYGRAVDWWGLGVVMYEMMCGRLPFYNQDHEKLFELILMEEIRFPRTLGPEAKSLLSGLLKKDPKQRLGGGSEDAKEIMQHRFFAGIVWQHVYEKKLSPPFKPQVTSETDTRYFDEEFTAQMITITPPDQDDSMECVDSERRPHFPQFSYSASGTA
# T9 sequence (Q16539 whole entry): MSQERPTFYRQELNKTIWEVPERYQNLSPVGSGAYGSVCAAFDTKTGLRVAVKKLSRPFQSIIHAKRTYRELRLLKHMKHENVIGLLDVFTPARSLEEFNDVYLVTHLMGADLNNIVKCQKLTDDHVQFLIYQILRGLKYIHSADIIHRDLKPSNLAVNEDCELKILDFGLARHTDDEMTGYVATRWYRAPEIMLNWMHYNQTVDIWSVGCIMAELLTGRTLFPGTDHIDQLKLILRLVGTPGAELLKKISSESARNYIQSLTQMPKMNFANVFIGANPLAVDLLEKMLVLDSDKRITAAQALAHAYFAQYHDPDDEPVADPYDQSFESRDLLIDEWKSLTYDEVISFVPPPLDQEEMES
smiles,measurement,setting,value
CC(C)[C@@H](Nc1ncnc2[nH]c(-c3cnn(C)c3C#N)cc12)c1ccc2c(n1)OCCO2 [ASAP-0010716],remaining activity at 10 µM,PI3 Kinase (p120γ)(h); batch_name=ASAP-0010716-002,78%
same,remaining activity at 10 µM,MST1(h); batch_name=ASAP-0010716-002,121%
same,remaining activity at 10 µM,GSK3β(h); batch_name=ASAP-0010716-002,101%
same,remaining activity at 10 µM,Fyn(h); batch_name=ASAP-0010716-002,55%
same,remaining activity at 10 µM,MLK1(h); batch_name=ASAP-0010716-002,82%
same,remaining activity at 10 µM,PKBα(h); batch_name=ASAP-0010716-002,94%
same,remaining activity at 10 µM,CDK1/cyclinB(h); batch_name=ASAP-0010716-002,88%
same,remaining activity at 10 µM,IGF-1R(h); batch_name=ASAP-0010716-002,94%
same,remaining activity at 10 µM,[1]; batch_name=ASAP-0010716-002,61%
same,remaining activity at 10 µM,CaMKI(h); batch_name=ASAP-0010716-002,95%
same,remaining activity at 10 µM,CDK2/cyclinA(h); batch_name=ASAP-0010716-002,104%
same,remaining activity at 10 µM,SAPK2a(h); batch_name=ASAP-0010716-002,101%
same,remaining activity at 10 µM,p70S6K(h); batch_name=ASAP-0010716-002,106%
same,remaining activity at 10 µM,KDR(h); batch_name=ASAP-0010716-002,86%
same,remaining activity at 10 µM,[2]; batch_name=ASAP-0010716-002,55%
same,remaining activity at 10 µM,mTOR(h); batch_name=ASAP-0010716-002,102%
same,remaining activity at 10 µM,EGFR(h); batch_name=ASAP-0010716-002,77%
same,remaining activity at 10 µM,[3]; batch_name=ASAP-0010716-002,84%
CNCc1cc(-c2cc3c(N[C@@H](c4ccc5c(c4)S(=O)(=O)CCC5)C(C)C)ncnc3[nH]2)co1 [ASAP-0011176],remaining activity at 10 µM,PI3 Kinase (p120γ)(h); batch_name=ASAP-0011176-002,96%
same,remaining activity at 10 µM,MST1(h); batch_name=ASAP-0011176-002,108%
same,remaining activity at 10 µM,GSK3β(h); batch_name=ASAP-0011176-002,92%
same,remaining activity at 10 µM,Fyn(h); batch_name=ASAP-0011176-002,64%
same,remaining activity at 10 µM,MLK1(h); batch_name=ASAP-0011176-002,86%
same,remaining activity at 10 µM,PKBα(h); batch_name=ASAP-0011176-002,96%
same,remaining activity at 10 µM,CDK1/cyclinB(h); batch_name=ASAP-0011176-002,97%
same,remaining activity at 10 µM,IGF-1R(h); batch_name=ASAP-0011176-002,99%
same,remaining activity at 10 µM,[1]; batch_name=ASAP-0011176-002,80%
same,remaining activity at 10 µM,CaMKI(h); batch_name=ASAP-0011176-002,87%
same,remaining activity at 10 µM,CDK2/cyclinA(h); batch_name=ASAP-0011176-002,98%
same,remaining activity at 10 µM,SAPK2a(h); batch_name=ASAP-0011176-002,97%
same,remaining activity at 10 µM,p70S6K(h); batch_name=ASAP-0011176-002,110%
same,remaining activity at 10 µM,KDR(h); batch_name=ASAP-0011176-002,88%
same,remaining activity at 10 µM,[2]; batch_name=ASAP-0011176-002,99%
same,remaining activity at 10 µM,mTOR(h); batch_name=ASAP-0011176-002,105%
same,remaining activity at 10 µM,EGFR(h); batch_name=ASAP-0011176-002,97%
same,remaining activity at 10 µM,[3]; batch_name=ASAP-0011176-002,92%
